The source of these data is patent US5580552A, “7-glycosyloxybenzopyran derivative and antiallergic agent containing the derivative as active ingredient” (priority 1994, dated 1996).

In assay [1] the test system is homologous passive cutaneous anaphylaxis (PCA) reaction. In words: Effect on homologous passive cutaneous anaphylaxis (PCA) reaction in rats. The assay is classed as in vivo, rats (male wistar). The note with it: 50 mg/kg oral, 1 hour before challenge (TABLE 2); for inhibition in vivo at 50 mg/kg: Rattus norvegicus, po, 0.5 h. The procedure: Effect on homologous passive cutaneous anaphylaxis (PCA) reaction in rats.
This experimental animal model is caused by immediate type allergic reaction namely, antigen-antibody reaction. In the following, the method of this pharmacological test will be explained.
Method: Male wistar rats (9 weeks old) were intradermally administered 0.05 ml of anti-serum against dinitrophenylated ascaris (DNP-As) into two sites on the shaved dorsal skin. 48 hours later, 7-glycosyloxybenzopyran derivatives (test compounds) suspended in 0.5% sodium carboxymethylcellulose (CMCNa) were given orally at a dose of 50 mg/kg to the animals. One hour after administration of Test compounds, the animals were induced anaphylaxis by injection of saline (1 ml) dissolving 5 mg of Evans Blue and 1 mg of Trinitrophenylated ascaris (TNP-As) into the tail vein of the animals. 30 minutes after induction of anaphylaxis, animals were anesthetized by ether and killed by bleeding, and were flayed dorsal skin. The determination of extravasated dye was performed according to the method of Katayama et al. (Microbiol. Immunol., Vol.22, P 89-101, 1978). As vehicle control group, only 0.5% CMCNa solution was administered orally, and as positive control group, Tranilast suspended in 0.5% CMCNa was administered orally at a dose of 100 mg/kg to the animals with the same method as the test compounds groups. Each experimental group consisted of 5 rats. [formula]

Assay [2] relates to contact dermatitis induced by picryl chloride. As to the kind of experiment: Effect on contact dermatitis induced by picryl chloride in mice. The assay is classed as in vivo. The note with it: 50 mg/kg oral, 1 hour before and 16 hours after challenge, 24 hours after challenge; for inhibition in vivo at 50 mg/kg: Mus musculus, po, 24 h, read-out: Inhibition (%) against the increase of ear thickness. The protocol:
Effect on contact dermatitis induced by picryl chloride in mice
The delayed type hypersensitization is inhibited by steroid drugs,but can not be effected by known anti-allergic agents. In the following, the method of the pharmacological test will be explained.
Method: Mice, shaved their abdominal skin on previous day, were immunized by applying 0.1 ml of acetone containing 7 mg of picryl chloride to the skin of the abdomen. 7 days after immunization, the thickness of the ear was measured with a dial thickness gauge, then mice were challenged by painting 5 μl of 1% picryl chloride olive oil solution to each side skin of left ear. 24 hours after challenge, the thickness of the left ear was measured again and the increase (%) of thickness was calculated according to equation 2. The compounds of the present invention (test compounds) suspended in 0.5% CMCNa were forcibly administered orally at a dose of 50 mg/kg at 1 hour before and 16 hours after challenge. As vehicle control group, only 0.5% CMCNa solution were administered orally, and as positive control group, Prednisolone, steroid hormone, and Tranilast were administered orally at the doses of 10 mg/kg and 100 mg/kg, respectively.
Increase (%)=(A-B)/B×100 (Equation 2)
A: thickness of the ear at 24 hours after challenge
B: thickness of the ear before challenge
Inhibition (%)=(C-D)/C×100 (equation 3)
C: The increase (%) in vehicle control group
D: The increase (%) in test compounds group or positive control group

For assay [3], the system named is experimental asthma model (airway resistance). As to the kind of experiment: Effect on experimental asthma model in guinea pigs (airway resistance). The assay is classed as in vivo, guinea pigs (male hartley). The note with it: 50 mg/kg oral (TABLE 6); for inhibition in vivo at 50 mg/kg: Cavia porcellus, po, 0.5 h. The procedure: Effect on experimental asthma model in guinea pigs
The asthma is typical allergic disease and we carried out this pharmacological test by well known experimental asthma model in guinea pigs in order to comfirm that the compounds of the present invention suppress the asthma. In the following, the method of the pharmacological test will be explained.
Method: Male hartley guinea pigs were immunized by intraperitoneal injection of saline (1ml) containing 5 mg of ovalbumine (OVA) three times at interval of one week. 2 weeks after final immunization, the animals were challenged by inhalation of 1% OVA-saline solution for 1 minute and then the airway resistance of the animals were measured for 30 minutes with PULMOS-1 (Medical Interface Project Station Inc.) after the inhalation. The compounds of the present invention (test compounds) suspended in 0.5% CMCNa were given orally at a dose of 50 mg/kg. As positive control group, Disodium Cromoglicate (DSCG), well known anti-allergic agent, in saline were injected at a dose of 20 mg/kg into the vein of the animals. As vehicle control group, only 0.5% CMCNa solution were given orally. The inhibition (%) of the airway resistance in vehicle control group was calculated according to equation 5 and the result was shown in TABLE 6. Each experimental group consisted of 5 guinea pigs. [formula]
A: Maximum airway resistance in vehicle control group
B: Maximum airway resistance in test compounds group or positive control group

For the molecule `CC(C)=CCC/C(C)=C/COc1c(O)c(=O)oc2cc(O[C@@H]3O[C@H](CO)[C@@H](O)[C@H](O)[C@H]3O)ccc12` [compound 160], the “Inhibition (%) of PCA reaction” value in assay [1] came to 43.9%. Moreover, in assay [2], the “Inhibition (%) against the increase of ear thickness” value is on record as 46.7%. Further, the “Inhibition (%) of the airway resistance” value in assay [3] is listed as 58.9%.
With `COc1c(O)c2ccc(O[C@@H]3O[C@H](CO)[C@@H](O)[C@H](O)[C@H]3O)cc2oc1=O` [compound 3, 3-methoxy-4-hydroxy-7-(β-D-glucopyranosyloxy)-2H-1-benzopyran-2-one], the inhibition in vivo at 50 mg/kg in assay [1] was 53.1%; in assay [2], 51.3%; in assay [3], 63.1%.
Turning to `CCCCCCCCCCOc1c(O)c(=O)oc2cc(O[C@@H]3O[C@H](CO)[C@@H](O)[C@H](O)[C@H]3O)ccc12` [compound 154], the “Inhibition (%) of PCA reaction” value in assay [1] is listed as 43.2%. Moreover, in assay [2], the “Inhibition (%) against the increase of ear thickness” value is reported as 41.6%. Besides, in assay [3], the “Inhibition (%) of the airway resistance” value is reported as 59.2%.
Take `CCCCOc1c(OC(=O)CC)c(=O)oc2cc(O[C@@H]3O[C@H](COC(C)=O)[C@@H](OC(C)=O)[C@H](OC(C)=O)[C@H]3OC(C)=O)ccc12` [compound 99]: the values for the inhibition in vivo at 50 mg/kg in assay [1], in assay [2] and in assay [3] were 40.2%, 40.3% and 39.2%, respectively.
The like results for `O=c1oc2cc(O[C@H]3O[C@H](CO)[C@@H](O)[C@H](O)[C@@H]3O)ccc2c(OCc2ccccc2)c1O` [compound 140] were, in that order, 40.4%, 40.1% and 45.1%.
The like results for `CCCCCCOc1c(O)c(=O)oc2cc(O[C@H]3O[C@H](CO)[C@@H](O)[C@H](O)[C@@H]3O)ccc12` [compound 20, 3-hydroxy-4-hexyloxy-7-(α-D-mannopyranosyloxy)-2H-1-benzopyran-2-one] were, in that order, 42.3%, 45.2% and 55.4%.
The like results for `CCCCCCOc1c(O)c(=O)oc2cc(O[C@@H]3O[C@H](CO)[C@H](O)[C@H](O)[C@H]3O)ccc12` [compound 21, 3-hydroxy-4-hexyloxy-7-(β-D-galactopyranosyloxy)-2H-1-benzopyran-2-one] were, in that order, 45.2%, 48.9% and 63.1%.
Turning to `COc1c(O)c2ccc(O[C@@H]3O[C@H](CO)[C@H](O)[C@H](O)[C@H]3O)cc2oc1=O` [compound 9, 3-methoxy-4-hydroxy-7-(β-D-galactopyranosyloxy)-2H-1-benzopyran-2-one], the inhibition in vivo at 50 mg/kg turned out to be 54.5% in assay [1], 52.1% in assay [2] and 60.3% in assay [3].
Take `CCCCOc1c(O)c2ccc(O[C@H]3O[C@H](CO)[C@@H](O)[C@H](O)[C@@H]3O)cc2oc1=O` [compound 62]: the inhibition in vivo at 50 mg/kg in assay [1] was 53.2%; in assay [2], 49.3%; in assay [3], 50.1%.
The corresponding values for `CCCCCCOc1c(OC(C)=O)c(=O)oc2cc(O[C@@H]3O[C@H](COC(C)=O)[C@H](OC(C)=O)[C@H](OC(C)=O)[C@H]3OC(C)=O)ccc12` [compound 15, 3-acetoxy-4-hexyloxy-7-(tetra-O-acetyl-β-D-galactopyranosyloxy)-2H-1-benzopyran-2-one] are 40.1%, 41.2% and 42.1%.
The corresponding values for `CCCCCCCCOc1c(O)c(=O)oc2cc(O[C@@H]3O[C@H](CO)[C@@H](O)[C@H](O)[C@H]3O)ccc12` [compound 22, 3-hydroxy-4-octyloxy-7-(β-D-glucopyranosyloxy)-2H-1-benzopyran-2-one] are 43.6%, 47.3% and 60.6%.
The corresponding values for `CC(C)Oc1c(O)c2ccc(O[C@H]3O[C@H](CO)[C@@H](O)[C@H](O)[C@@H]3O)cc2oc1=O` [compound 67] are 50.4%, 53.2% and 60.2%.
Turning to `CCC=CCCOc1c(O)c2ccc(O[C@@H]3O[C@H](CO)[C@@H](O)[C@H](O)[C@H]3O)cc2oc1=O` [compound 45], the values for the inhibition in vivo at 50 mg/kg in assay [1], in assay [2] and in assay [3] were 55.2%, 54.2% and 62.3%, respectively.
The corresponding values for `COc1c(O)c(=O)oc2cc(O[C@H]3O[C@H](CO)[C@@H](O)[C@H](O)[C@@H]3O)ccc12` [compound 131] are 41.2%, 40.9% and 42.5%.
The like results for `O=c1oc2cc(O[C@@H]3O[C@H](CO)[C@@H](O)[C@H](O)[C@H]3O)ccc2c(OCc2ccccc2)c1O` [compound 152] were, in that order, 41.3%, 43.2% and 52.4%.
Take `CCCCCCCCOc1c(OCc2ccccc2)c2ccc(O[C@@H]3O[C@H](COCc4ccccc4)[C@@H](OCc4ccccc4)[C@H](OCc4ccccc4)[C@H]3OCc3ccccc3)cc2oc1=O` [compound 35]: the inhibition in vivo at 50 mg/kg in assay [1] came to 42.2%; in assay [2], 40.5%; in assay [3], 38.2%.
The corresponding values for `CC1CCC(Oc2c(O)c3ccc(O[C@H]4O[C@H](CO)[C@@H](O)[C@H](O)[C@@H]4O)cc3oc2=O)CC1` (stereo partly drawn) [compound 68] are 49.5%, 47.3% and 63.5%.
The like results for `CCCCCCCCCCCCOc1c(O)c(=O)oc2cc(O[C@H]3O[C@H](CO)[C@@H](O)[C@H](O)[C@@H]3O)ccc12` [compound 134] were, in that order, 41.5%, 43.7% and 45.9%.
The corresponding values for `CC(C)Oc1c(O)c2ccc(O[C@@H]3O[C@H](CO)[C@@H](O)[C@H](O)[C@H]3O)cc2oc1=O` [compound 42] are 56.4%, 58.3% and 68.5%.
Consider `CCCCCCCCOc1c(O)c2ccc(O[C@H]3O[C@H](CO)[C@@H](O)[C@H](O)[C@@H]3O)cc2oc1=O` [compound 64], for which the inhibition in vivo at 50 mg/kg in assay [1] was 54.9%; in assay [2] it was 52.6%; in assay [3], 57.2%.
The like results for `CCCCOc1c(O)c(=O)oc2cc(O[C@@H]3O[C@H](CO)[C@@H](O)[C@H](O)[C@H]3O)ccc12` [compound 110] were, in that order, 41.4%, 42.9% and 56.5%.
The like results for `C=COc1c(O)c2ccc(O[C@@H]3O[C@H](CO)[C@H](O)[C@H](O)[C@H]3O)cc2oc1=O` [compound 93] were, in that order, 55.2%, 56.4% and 69.7%.
